Data taken from patent publication US20060069123A1, “Substituted dipiperidine CCR2 antagonists” (priority 2004, published 2006).
Read-outs that look alike come from different tables or passages of the source.

Tests used:
THP-1 cells = experiment: MCP-1 Induced Chemotaxis in THP-1 Cells; format: cell-based; settings: Homo sapiens, THP-1 cells, MCP-1 0.01 μg/mL, 3 hours, read-out: Inhibition of MCP-1 Induced Chemotaxis IC50
Experimental: MCP-1 Induced Chemotaxis in THP-1 Cells
MCP-1 induced chemotaxis was run in a 24-well chemotaxis chamber. MCP-1 (0.01 μg/mL) was added to the lower chamber and 100 μL of THP-1 cells (1×10^7 cell/mL) was added to the top chamber. Varying concentrations of test compound were added to the top and bottom chambers. Cells were allowed to chemotax for 3 hours at 37° C. and 5% CO2. An aliquot of the cells that had migrated to the bottom chamber was taken and counted then compared to vehicle.

CCR2 = target: T1, CCR2 (Homo sapiens, UniProt P41597); settings: for inhibition at 25 µM: read-out: Inhibition of MCP-1 Binding, percent inhibition
T1 sequence (P41597 1-360 isoform P41597-2): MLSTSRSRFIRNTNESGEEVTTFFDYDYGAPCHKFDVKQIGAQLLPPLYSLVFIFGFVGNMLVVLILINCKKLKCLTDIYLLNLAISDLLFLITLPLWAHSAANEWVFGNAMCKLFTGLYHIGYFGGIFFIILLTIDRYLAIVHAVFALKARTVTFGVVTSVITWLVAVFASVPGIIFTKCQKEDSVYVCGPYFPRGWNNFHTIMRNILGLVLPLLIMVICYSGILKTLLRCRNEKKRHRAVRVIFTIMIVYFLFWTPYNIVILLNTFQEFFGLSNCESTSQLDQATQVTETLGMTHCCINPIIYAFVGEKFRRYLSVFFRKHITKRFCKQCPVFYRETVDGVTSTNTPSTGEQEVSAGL

Compound	IC50 (THP-1 cells)	IC50 (CCR2)	also measured
O=C(O)C(C1CCN(C(=O)/C=C/c2cccc([N+](=O)[O-])c2)CC1)N1CCC(c2c[nH]c3ccccc23)CC1 (stereo not drawn) [Cpd 92, [4-(1H-indol-3-yl)-piperidin-1-yl]-{1-[(2E)-3-(3-nitro-phenyl)-acryloyl]-piperidin-4-yl}-acetic acid]	100 nM	40 nM	
COc1ccc2c(C3CCN(C(C(=O)O)C4CCN(C(=O)/C=C/c5cc(F)cc(F)c5)CC4)CC3)c[nH]c2c1 (stereo not drawn) [Cpd 38, {1-[(2E)-3-(3,5-difluoro-phenyl)-acryloyl]-piperidin-4-yl}-[4-(6-methoxy-1H-indol-3-yl)-piperidin-1-yl]-acetic acid]	4 nM	20 nM	
O=C(O)C(C1CCN(C(=O)Nc2ccc(F)c(C(F)(F)F)c2)CC1)N1CCC(c2c[nH]c3ccccc23)CC1 (stereo not drawn) [Cpd 58, [1-(4-fluoro-3-trifluoromethyl-phenylcarbamoyl)-piperidin-4-yl]-[4-(1H-indol-3-yl)-piperidin-1-yl]-acetic acid]	130 nM	90 nM	
O=C(O)C(C1CCN(C(=O)/C=C/c2cc(F)cc(F)c2)CC1)N1CCC(c2c[nH]c3ccc(F)cc23)CC1 (stereo not drawn) [Cpd 8, {1-[(2E)-3-(3,5-difluoro-phenyl)-acryloyl]-piperidin-4-yl}-[4-(5-fluoro-1H-indol-3-yl)-piperidin-1-yl]-acetic acid]	10 nM		
O=C(O)C(C1CCN(C(=O)/C=C/c2cccc(F)c2)CC1)N1CCC(c2c[nH]c3ccccc23)CC1 (stereo not drawn) [Cpd 62, {1-[(2E)-3-(3-fluoro-phenyl)-acryloyl]-piperidin-4-yl}-[4-(1H-indol-3-yl)-piperidin-1-yl]-acetic acid]	180 nM		
O=C(O)C(C1CCN(C(=O)/C=C/c2ccc(F)c(Br)c2)CC1)N1CCC(c2c[nH]c3ccccc23)CC1 (stereo not drawn) [Cpd 36, {1-[(2E)-3-(3-bromo-4-fluoro-phenyl)-acryloyl]-piperidin-4-yl}-[4-(1H-indol-3-yl)-piperidin-1-yl]-acetic acid]	0.4 nM	8 nM	
COc1cccc(/C=C/C(=O)N2CCC(C(C(=O)O)N3CCC(c4c[nH]c5ccccc45)CC3)CC2)c1 (stereo not drawn) [Cpd 72, [4-(1H-indol-3-yl)-piperidin-1-yl]-{1-[(2E)-3-(3-methoxy-phenyl)-acryloyl]-piperidin-4-yl}-acetic acid]	30 nM		
O=C(O)C(C1CCN(C(=O)/C=C/c2cc(F)cc(F)c2)CC1)N1CCC(c2c[nH]c3cc(Cl)ccc23)CC1 (stereo not drawn) [Cpd 25, [4-(6-chloro-1H-indol-3-yl)-piperidin-1-yl]-{1-[(2E)-3-(3,5-difluoro-phenyl)-acryloyl]-piperidin-4-yl}-acetic acid]	10 nM		
COc1ccc2[nH]cc(C3CCN(C(C(=O)O)C4CCN(C(=O)/C=C/c5cc(F)cc(F)c5)CC4)CC3)c2c1 (stereo not drawn) [Cpd 26, {1-[(2E)-3-(3,5-difluoro-phenyl)-acryloyl]-piperidin-4-yl}-[4-(5-methoxy-1H-indol-3-yl)-piperidin-1-yl]-acetic acid]	30 nM		
O=C(O)C(C1CCN(C(=O)Nc2ccc(F)c(F)c2)CC1)N1CCC(c2c[nH]c3ccccc23)CC1 (stereo not drawn) [Cpd 40, [1-(3,4-difluoro-phenylcarbamoyl)-piperidin-4-yl]-[4-(1H-indol-3-yl)-piperidin-1-yl]-acetic acid]	30 nM		
O=C(O)C(C1CCN(C(=O)/C=C/c2ccc(Cl)c(Cl)c2)CC1)N1CCC(c2c[nH]c3ccc(F)cc23)CC1 (stereo not drawn) [Cpd 19, {1-[(2E)-3-(3,4-dichloro-phenyl)-acryloyl]-piperidin-4-yl}-[4-(5-fluoro-1H-indol-3-yl)-piperidin-1-yl]-acetic acid]	4 nM		
Cc1ccc(/C=C/C(=O)N2CCC(C(C(=O)O)N3CCC(c4c[nH]c5ccccc45)CC3)CC2)cc1F (stereo not drawn) [Cpd 74, {1-[(2E)-3-(3-fluoro-4-methyl-phenyl)-acryloyl]-piperidin-4-yl}-[4-(1H-indol-3-yl)-piperidin-1-yl]-acetic acid]	6 nM	5 nM	
COc1ccc(C2CCN(C(C(=O)O)C3CCN(C(=O)/C=C/c4cc(F)cc(F)c4)CC3)CC2)cc1 (stereo not drawn) [Cpd 2, {1-[(2E)-3-(3,5-difluoro-phenyl)-acryloyl]-piperidin-4-yl}-[4-(4-methoxy-phenyl)-piperidin-1-yl]-acetic acid]	1810 nM	1830 nM	
O=C(O)C(C1CCN(C(=O)/C=C/c2ccc(Br)cc2)CC1)N1CCC(c2c[nH]c3ccccc23)CC1 (stereo not drawn) [Cpd 60, {1-[(2E)-3-(4-bromo-phenyl)-acryloyl]-piperidin-4-yl}-[4-(1H-indol-3-yl)-piperidin-1-yl]-acetic acid]	70 nM		
COc1cccc2c(C3CCN(C(C(=O)O)C4CCN(C(=O)/C=C/c5cc(F)cc(F)c5)CC4)CC3)c[nH]c12 (stereo not drawn) [Cpd 42, {1-[(2E)-3-(3,5-difluoro-phenyl)-acryloyl]-piperidin-4-yl}-[4-(7-methoxy-1H-indol-3-yl)-piperidin-1-yl]-acetic acid]	0.8 nM		
O=C(O)C(C1CCN(C(=O)/C=C/c2ccc(F)c(F)c2)CC1)N1CCC(c2c[nH]c3ccccc23)CC1 (stereo not drawn) [Cpd 22, {1-[(2E)-3-(3,4-difluoro-phenyl)-acryloyl]-piperidin-4-yl}-[4-(1H-indol-3-yl)-piperidin-1-yl]-acetic acid]	4 nM		
O=C(O)C(C1CCN(C(=O)/C=C/c2cc(F)cc(F)c2)CC1)N1CCC(c2c[nH]c3ccc(O)cc23)CC1 (stereo not drawn) [Cpd 16, {1-[(2E)-3-(3,5-difluoro-phenyl)-acryloyl]-piperidin-4-yl}-[4-(5-hydroxy-1H-indol-3-yl)-piperidin-1-yl]-acetic acid]	20 nM		
CS(=O)(=O)Nc1ccc2c(C3CCN(C(C(=O)O)C4CCN(C(=O)/C=C/c5cc(F)c(F)c(F)c5)CC4)CC3)c[nH]c2c1 (stereo not drawn) [Cpd 82]			IC50 (THP-1 cells; THP-1, 3 h): 210 nM
O=CNCC(C1CCN(C(=O)/C=C/c2cccc(C(F)(F)F)c2)CC1)N1CCC(c2c[nH]c3ccccc23)CC1 (stereo not drawn) [Cpd 224]			inhibition at 25 µM (CCR2): 54%
N=C(NC(=O)c1cccc(C(F)(F)F)c1)N1CCC(C(C(=O)O)N2CCC(c3c[nH]c4ccccc34)CC2)CC1 (stereo not drawn) [Cpd 73, {1-[imino-(3-trifluoromethyl-benzoylamino)-methyl]-piperidin-4-yl}-[4-(1H-indol-3-yl)-piperidin-1-yl]-acetic acid]		150 nM	
O=C(O)C(C1CCN(C(=S)Nc2ccc(F)cc2F)CC1)N1CCC(c2c[nH]c3ccccc23)CC1 (stereo not drawn) [Cpd 44, [1-(2,4-difluoro-phenylthiocarbamoyl)-piperidin-4-yl]-[4-(1H-indol-3-yl)-piperidin-1-yl]-acetic acid]		2700 nM	
O=C(C1CC1c1ccc(Cl)c(Cl)c1)N1CCC(C(CO)N2CCC(c3c[nH]c4ccccc34)CC2)CC1 (stereo not drawn) [Cpd 212, [2-(3,4-dichloro-phenyl)-cyclopropyl]-(4-{2-hydroxy-1-[4-(1H-indol-3-yl)-piperidin-1-yl]-ethyl}-piperidin-1-yl)-methanone]			inhibition at 25 µM (CCR2): 58%

Now from value to molecule, other results behind:

IC50 (THP-1 cells)	IC50 (CCR2)	Compound	also measured
20 nM	20 nM	COc1ccc2c(C3CCN(C(C(=O)O)C4CCN(C(=O)Nc5ccc(Cl)c(Cl)c5)CC4)CC3)c[nH]c2c1 (stereo not drawn) [Cpd 95, [1-(3,4-dichloro-phenylcarbamoyl)-piperidin-4-yl]-[4-(6-methoxy-1H-indol-3-yl)-piperidin-1-yl]-acetic acid]	
	2900 nM	COC(=O)OCC(C1CCN(C(=O)/C=C/c2cc(F)cc(F)c2)CC1)N1CCC(c2ccc(Cl)cc2)CC1 (stereo not drawn) [Cpd 250, carbonic acid 2-[4-(4-chloro-phenyl)-piperidin-1-yl]-2-{1-[(2E)-3-(3,5-difluoro-phenyl)-acryloyl]-piperidin-4-yl}-ethyl ester methyl ester]	
	3900 nM	COc1cccc2c(C3CCN(C(CO)C4CCN(C(=O)OC(C)(C)C)CC4)CC3)c[nH]c12 (stereo not drawn) [Cpd 131, 4-{2-hydroxy-1-[4-(7-methoxy-1H-indol-3-yl)-piperidin-1-yl]-ethyl}-piperidine-1-carboxylic acid tert-butyl ester]	
	3000 nM	O=C(O)C(C1CCN(C(=O)/C=C/c2cc(F)cc(F)c2)CC1)N1CCC(c2n[nH]c3ccccc23)CC1 (stereo not drawn) [Cpd 177, {1-[(2E)-3-(3,5-difluoro-phenyl)-acryloyl]-piperidin-4-yl}-[4-(1H-indazol-3-yl)-piperidin-1-yl]-acetic acid]	
	11200 nM	O=C(O)C(C1CCN(C(=O)Nc2ccc(Cl)cc2Cl)CC1)N1CCC(c2c[nH]c3ccccc23)CC1 (stereo not drawn) [Cpd 111, [1-(2,4-dichloro-phenylcarbamoyl)-piperidin-4-yl]-[4-(1H-indol-3-yl)-piperidin-1-yl]-acetic acid]	
	1900 nM	O=C(/C=C/c1cc(F)c(F)c(F)c1)N1CCC(C(CO)N2CCC(c3coc4ncccc34)CC2)CC1 (stereo not drawn) [Cpd 248, (2E)-1-{4-[1-(4-furo[2,3-b]pyridin-3-yl-piperidin-1-yl)-2-hydroxy-ethyl]-piperidin-1-yl}-3-(3,4,5-trifluoro-phenyl)-propenone]	
	1900 nM	CCOC(=O)C(C1CCN(C(=O)/C=C/c2cc(F)c(F)c(F)c2)CC1)N1CCC(c2c[nH]c3ncccc23)CC1 (stereo not drawn) [Cpd 152, [4-(1H-pyrrolo[2,3-b]pyridin-3-yl)-piperidin-1-yl]-{1-[(2E)-3-(3,4,5-trifluoro-phenyl)-acryloyl]-piperidin-4-yl}-acetic acid ethyl ester]	
